Source: patent US20240279214A1, “ALPHA4 BETA7 INEGRIN ANTAGONISTS AND USES THEREOF” (XinThera, Inc., priority 2022, published 2024)
Like-named read-outs stand apart in the source and are kept apart here.

Conditions: ether bond, 13-membered ring, 100.0 °C

## CCOC(=O)C[C@@H]1NC(=O)C(n2cc(CCN3CC(F)C3)c(C(F)(F)F)cc2=O)c2cc(ccc2F)Oc2cc(C(F)(F)F)cc(C)c2-c2cc(C)c(F)c1c2 (stereo partly drawn)
From CCOC(=O)C[C@H](NC(=O)C(c1cc(Br)ccc1F)n1cc(CCN2CC(F)C2)c(C(F)(F)F)cc1=O)c1cc(-c2c(C)cc(C(F)(F)F)cc2O)cc(C)c1F, CuI/K2CO3/(1R,2R)-N1,N2-dimethylcyclohexane-1,2-diamine, 1,4-dioxane, 30.0 mM, 16.0 h
  ring closure, isolated yield: 55%

## CCOC(=O)C[C@@H]1NC(=O)C(n2cc(CCN3CC(F)C3)c(C(F)(F)F)cc2=O)c2cc(ccc2F)Oc2cc(C)cc(C)c2-c2cc(C)c(F)c1c2 (stereo partly drawn)
From CCOC(=O)C[C@H](NC(=O)C(c1cc(Br)ccc1F)n1cc(CCN2CC(F)C2)c(C(F)(F)F)cc1=O)c1cc(-c2c(C)cc(C)cc2O)cc(C)c1F, CuI/K2CO3/(1R,2R)-N1,N2-dimethylcyclohexane-1,2-diamine, dioxane, 66.0 mM, 16.0 h
  ring closure, isolated yield: 49.3%

## CCOC(=O)C[C@@H]1NC(=O)C(n2cc(CCN3CC(F)C3)c(C(F)(F)F)cc2=O)c2cc(ccc2F)Oc2cc(N3C4CCC3COC4)cc(C)c2-c2cc(C)c(F)c1c2 (stereo partly drawn)
From CCOC(=O)C[C@H](NC(=O)C(c1cc(Br)ccc1F)n1cc(CCN2CC(F)C2)c(C(F)(F)F)cc1=O)c1cc(-c2c(C)cc(N3C4CCC3COC4)cc2O)cc(C)c1F, CuI/(1R,2R)-N1,N2-dimethylcyclohexane-1,2-diamine/K2CO3, dioxane, 27.5 mM, 16.0 h
  ring closure, isolated yield: 54.8%

## CCOC(=O)C[C@@H]1NC(=O)C(n2cc(CCN3CC(F)C3)c(C(F)(F)F)cc2=O)c2cc(ccc2F)Oc2cc(N3CC(OC)C3)cc(C)c2-c2cc(C)c(F)c1c2 (stereo partly drawn)
From CCOC(=O)C[C@H](NC(=O)C(c1cc(Br)ccc1F)n1cc(CCN2CC(F)C2)c(C(F)(F)F)cc1=O)c1cc(-c2c(C)cc(N3CC(OC)C3)cc2O)cc(C)c1F, CuI/(1R,2R)-N1,N2-dimethylcyclohexane-1,2-diamine/K2CO3, 1,4-dioxane, 30.0 mM, 2.0 h
  ring closure, isolated yield: 59.2%

## CCOC(=O)C[C@@H]1NC(=O)C(n2cc(CCN3CC(F)C3)c(C(F)(F)F)cc2=O)c2cc(ccc2F)Oc2ccc(F)cc2-c2cc(C)c(F)c1c2 (stereo partly drawn)
From CCOC(=O)C[C@H](NC(=O)C(c1cc(Br)ccc1F)n1cc(CCN2CC(F)C2)c(C(F)(F)F)cc1=O)c1cc(-c2cc(F)ccc2O)cc(C)c1F, CuI/(1R,2R)-N1,N2-dimethylcyclohexane-1,2-diamine/K2CO3, dioxane, 95.0 mM, 3.0 h
  ring closure, isolated yield: 54.4%

## CCOC(=O)C[C@@H]1NC(=O)C(n2cc(CCN3CC(F)C3)c(C(F)(F)F)cc2=O)c2cc(ccc2F)Oc2cccc(C)c2-c2cc(C)c(F)c1c2 (stereo partly drawn)
From CCOC(=O)C[C@H](NC(=O)C(c1cc(Br)ccc1F)n1cc(CCN2CC(F)C2)c(C(F)(F)F)cc1=O)c1cc(-c2c(C)cccc2O)cc(C)c1F, CuI/N1,N2-dimethylcyclohexane-1,2-diamine/K2CO3, dioxane, 18.7 mM, 16.0 h
  ring closure, isolated yield: 72.5%

## CCOC(=O)C[C@@H]1NC(=O)C(n2cc(CCN3CC(F)C3)c(C(F)(F)F)cc2=O)c2cc(ccc2F)Oc2cccc(C)c2-c2cc1c(C)s2 (stereo partly drawn)
From CCOC(=O)C[C@H](NC(=O)C(c1cc(Br)ccc1F)n1cc(CCN2CC(F)C2)c(C(F)(F)F)cc1=O)c1cc(-c2c(C)cccc2O)sc1C, CuI/K2CO3/(1R,2R)-N1,N2-dimethylcyclohexane-1,2-diamine, dioxane, 26.0 mM
  ring closure, isolated yield: 55.7%

## CCOC(=O)C[C@@H]1NC(=O)C(n2cc(CCN3CC(F)C3)c(C(F)(F)F)cc2=O)c2cccc(c2)Oc2cc(C(F)(F)F)cc(C)c2-c2cc1c(F)c(C(F)(F)F)c2 (stereo partly drawn)
From CCOC(=O)C[C@H](NC(=O)C(c1cccc(Br)c1)n1cc(CCN2CC(F)C2)c(C(F)(F)F)cc1=O)c1cc(-c2c(C)cc(C(F)(F)F)cc2O)cc(C(F)(F)F)c1F, CuI/(1R,2R)-N1,N2-dimethylcyclohexane-1,2-diamine/K2CO3, dioxane, 22.0 mM, 16.0 h
  ring closure, isolated yield: 38.4%

## CCOC(=O)C[C@@H]1NC(=O)C(n2cc(CCN3CC(F)C3)c(C(F)(F)F)cc2=O)c2cccc(c2)Oc2cc(C)cc(C)c2-c2cc1c(F)c(C(F)(F)F)c2 (stereo partly drawn)
From CCOC(=O)C[C@H](NC(=O)C(c1cccc(Br)c1)n1cc(CCN2CC(F)C2)c(C(F)(F)F)cc1=O)c1cc(-c2c(C)cc(C)cc2O)cc(C(F)(F)F)c1F, CuI/(1R,2R)-N1,N2-dimethylcyclohexane-1,2-diamine/K2CO3, dioxane, 28.3 mM, 16.0 h
  ring closure, isolated yield: 66.2%

## CCOC(=O)C[C@@H]1NC(=O)C(n2cc(CCN3CC(F)C3)c(C(F)(F)F)cc2=O)c2cccc(c2)Oc2cccc(C(F)(F)F)c2-c2cc1c(F)c(C(F)(F)F)c2 (stereo partly drawn)
From CCOC(=O)C[C@H](NC(=O)C(c1cccc(Br)c1)n1cc(CCN2CC(F)C2)c(C(F)(F)F)cc1=O)c1cc(-c2c(O)cccc2C(F)(F)F)cc(C(F)(F)F)c1F, CuI/N1,N2-dimethylcyclohexane-1,2-diamine/K2CO3, dioxane, 14.7 mM, 16.0 h
  ring closure, isolated yield: 46.7%

## CCOC(=O)C[C@@H]1NC(=O)C(n2cc(CCN3CC(F)C3)c(C(F)(F)F)cc2=O)c2cccc(c2)Oc2cccc(C)c2-c2cc(C3CC3)c(F)c1c2 (stereo partly drawn)
From CCOC(=O)C[C@H](NC(=O)C(c1cccc(Br)c1)n1cc(CCN2CC(F)C2)c(C(F)(F)F)cc1=O)c1cc(-c2c(C)cccc2O)cc(C2CC2)c1F, CuI/(1R,2R)-N1,N2-dimethylcyclohexane-1,2-diamine/K2CO3, dioxane, 26.1 mM, 16.0 h
  ring closure, isolated yield: 82.3%

## CCOC(=O)C[C@@H]1NC(=O)C(n2cc(CCN3CC(F)C3)c(C(F)(F)F)cc2=O)c2cccc(c2)Oc2cccc(Cl)c2-c2cc1c(F)c(C(F)(F)F)c2 (stereo partly drawn)
From CCOC(=O)C[C@H](NC(=O)C(c1cccc(Br)c1)n1cc(CCN2CC(F)C2)c(C(F)(F)F)cc1=O)c1cc(-c2c(O)cccc2Cl)cc(C(F)(F)F)c1F, CuI/N1,N2-dimethylcyclohexane-1,2-diamine/K2CO3, dioxane, 15.3 mM, 16.0 h
  ring closure, isolated yield: 55.1%

## CCOC(=O)C[C@@H]1NC(=O)C(n2cc(CCN3CC(F)C3)cc(C)c2=O)c2cc(ccc2F)Oc2cccc(C)c2-c2cc(C)c(F)c1c2 (stereo partly drawn)
From CCOC(=O)C[C@H](NC(=O)C(c1cc(Br)ccc1F)n1cc(CCN2CC(F)C2)cc(C)c1=O)c1cc(-c2c(C)cccc2O)cc(C)c1F, CuI/K2CO3/(1R,2R)-N1,N2-dimethylcyclohexane-1,2-diamine, 1,4-dioxane, 20.0 mM, 16.0 h
  ring closure, isolated yield: 70.9%

## CCOC(=O)C[C@@H]1NC(=O)C(n2cc(CCN3CCC(F)(F)CC3)c(C(F)(F)F)cc2=O)c2cc(ccc2F)Oc2cccc(C)c2-c2cc(C)c(F)c1c2 (stereo partly drawn)
From CCOC(=O)C[C@H](NC(=O)C(c1cc(Br)ccc1F)n1cc(CCN2CCC(F)(F)CC2)c(C(F)(F)F)cc1=O)c1cc(-c2c(C)cccc2O)cc(C)c1F, CuI/K2CO3/(1R,2R)-N1,N2-dimethylcyclohexane-1,2-diamine, 1,4-dioxane, 36.3 mM, 16.0 h
  ring closure, isolated yield: 66.2%

## CCOC(=O)C[C@@H]1NC(=O)C(n2cc(CCOC)c(C(F)(F)F)cc2=O)c2cc(ccc2F)Oc2cccc(C)c2-c2cc(C)c(F)c1c2 (stereo partly drawn)
From CCOC(=O)C[C@H](NC(=O)C(c1cc(Br)ccc1F)n1cc(CCOC)c(C(F)(F)F)cc1=O)c1cc(-c2c(C)cccc2O)cc(C)c1F, CuI/K2CO3/(1R,2S)-N1,N2-dimethylcyclohexane-1,2-diamine, dioxane, 65.0 mM
  ring closure, isolated yield: 27.9%

## CCOC(=O)C[C@@H]1NC(=O)C(n2ccc(C(F)(F)F)c(CC)c2=O)c2cc(ccc2F)Oc2cccc(C)c2-c2cc(C)c(F)c1c2 (stereo partly drawn)
From CCOC(=O)C[C@H](NC(=O)C(c1cc(Br)ccc1F)n1ccc(C(F)(F)F)c(CC)c1=O)c1cc(-c2c(C)cccc2O)cc(C)c1F, CuI/(1R,2R)-N,N'-dimethylcyclohexane-1,2-diamine/K2CO3, 1,4-dioxane, 20.0 mM, 16.0 h
  ring closure, isolated yield: 56.1%

## CCOC(=O)C[C@@H]1NC(=O)C(n2ccc(C(F)(F)F)c(OC)c2=O)c2cc(ccc2F)Oc2cccc(C)c2-c2cc(C)c(F)c1c2 (stereo partly drawn)
From CCOC(=O)C[C@H](NC(=O)C(c1cc(Br)ccc1F)n1ccc(C(F)(F)F)c(OC)c1=O)c1cc(-c2c(C)cccc2O)cc(C)c1F, CuI/(1S,2S)-N,N'-dimethylcyclohexane-1,2-diamine/K2CO3, 1,4-dioxane, 13.5 mM
  ring closure, isolated yield: 67.3%

## CCOC(=O)C[C@@H]1NC(=O)C(n2ccc(C(F)(F)F)cc2=O)c2cc(ccc2F)Oc2cc(OC)cc(C)c2-c2cc(C)c(F)c1c2 (stereo partly drawn)
From CCOC(=O)C[C@H](NC(=O)C(c1cc(Br)ccc1F)n1ccc(C(F)(F)F)cc1=O)c1cc(-c2c(C)cc(OC)cc2O)cc(C)c1F, CuI/K2CO3/(1R,2R)-N1,N2-dimethylcyclohexane-1,2-diamine, 1,4-dioxane, 70.0 mM, 2.0 h
  ring closure, isolated yield: 67.3%

## CCOC(=O)C[C@@H]1NC(=O)C(n2ccc(C(F)(F)F)cc2=O)c2cc(ccc2F)Oc2cccc(C)c2-c2cc(C)c(F)c1c2 (stereo partly drawn)
From CCOC(=O)C[C@H](NC(=O)C(c1cc(Br)ccc1F)n1ccc(C(F)(F)F)cc1=O)c1cc(-c2c(C)cccc2O)cc(C)c1F, CuI/(1R,2R)-N1,N2-dimethylcyclohexane-1,2-diamine/K2CO3, 1,4-dioxane, 40.0 mM, 16.0 h
  ring closure, isolated yield: 88.7%

## CCOC(=O)C[C@H](NC(=O)C(c1cc(Cl)cc(Br)c1)n1cc(CCN2CC(F)C2)c(C(F)(F)F)cc1=O)c1cc(-c2c(C)cccc2O)cc(C(F)(F)F)c1F (stereo partly drawn)
The molecule shown is the open-chain precursor, CuI/(1R,2R)-N1,N2-dimethylcyclohexane-1,2-diamine/K2CO3, dioxane, 19.0 mM
  ring closure, isolated yield: 56%

## CCOC(=O)C[C@H](NC(=O)C(c1cc(Cl)cc(Br)c1)n1cc(CCN2CC(F)C2)c(C(F)(F)F)cc1=O)c1cc(-c2c(C)cccc2O)cc(C)c1F (stereo partly drawn)
The molecule shown is the open-chain precursor, CuI/(1R,2R)-N1,N2-dimethylcyclohexane-1,2-diamine/K2CO3, dioxane, 15.0 mM
  ring closure, isolated yield: 66.5%

## CCOC(=O)C[C@H](NC(=O)C(c1cc(Cl)cc(Br)c1)n1cc(CCN2CC(F)C2)c(C(F)(F)F)cc1=O)c1cc(-c2c(O)ccc(F)c2C)cc(C)c1F (stereo partly drawn)
The molecule shown is the open-chain precursor, CuI/(1R,2R)-N1,N2-dimethylcyclohexane-1,2-diamine/K2CO3, dioxane, 22.0 mM
  ring closure, isolated yield: 98.3%

## CCOC(=O)C[C@H](NC(=O)C(c1cccc(Br)c1)n1cc(Cl)c(C(F)(F)F)cc1=O)c1cc(-c2c(C)cccc2O)cc(C(F)(F)F)c1F (stereo partly drawn)
The molecule shown is the open-chain precursor, CuI/(1R,2R)-N1,N2-dimethylcyclohexane-1,2-diamine/K2CO3, 1,4-dioxane, 23.3 mM
  ring closure, isolated yield: 71%

## COC(=O)C[C@@H]1NC(=O)C(n2ccc(C(F)(F)F)cc2=O)c2cc(ccc2F)Oc2cccc(C)c2-n2cc1c(C(F)(F)F)n2 (stereo partly drawn)
From COC(=O)C[C@H](NC(=O)C(c1cc(Br)ccc1F)n1ccc(C(F)(F)F)cc1=O)c1cn(-c2c(C)cccc2O)nc1C(F)(F)F, CuI/(1R,2R)-N,N'-dimethylcyclohexane-1,2-diamine/K2CO3, 1,4-dioxane, 65.0 mM, 2.0 h
  ring closure, isolated yield: 22.5%
